Laboratory results reported in patent US20240307350A1, “5-METHOXY-N,N-DIMETHYLTRYPTAMINE (5-MEO-DMT) FOR TREATING DEPRESSION” (GH RESEARCH IRELAND LIMITED, priority 2019, published 2024).

Tested on: patients with treatment-resistant major depressive disorder
Assay: Clinical trial in treatment-resistant major depressive disorder: symptom scales (MADRS, PGI-S, PGI-I, C-SSRS, BPRS)
Format: in vivo, human
Conditions: for PGI-I: 1, Very much improved, 2, Much improved, to 7, Very much worse; for MADRS suicidal thoughts item: ranges from 0 to 6; for BPRS Unusual thought content / BPRS Somatic concern / BPRS Tension / BPRS Guilt feelings / BPRS Depressive Mood / BPRS Anxiety: scale of 1-7; for PGI-S: 1, Normal, not at all ill to 7, Extremely ill; for MADRS: score 0 to 60; for BPRS (total): 18 symptoms each rated 1-7; for C-SSRS Suicidal Ideation: whether any of the suicidal ideation items were present
Protocol: A clinical trial was performed in which 5-MeO-DMT free base (purity not less than 99%) was administered to patients with treatment-resistant major depressive disorder (TRD). The objectives of the study were to assess the safety and tolerability, the dose-related psychedelic effects and the effects on various measures of depression of single-day dosing of 5-MeO-DMT. The trial was reviewed and approved by the relevant national competent authority and local medical ethics committee. Patients recruited into the trial had to meet the Diagnostic and Statistical Manual of Mental Disorders-Fifth Edition (DSM-5) diagnostic criteria for single-episode or recurrent major depressive disorder and had to be treatment-resistant, both aspects as evaluated by a psychiatrist or registered psychologist. Patients who were using any psychoactive medication or substance (such as anti-depressive medication) had to discontinue such medication or substance and had to observe a wash-out period before the 5-MeO-DMT administration. On the administration day, a single dose of 12 mg 5-MeO-DMT was administered to the patients via a single inhalation as described in Example 1A. Patients were closely monitored for 3.5 hours after administration, with additional follow-up visits 1 day and 7 days after dosing. Various safety related measures (e.g., adverse event reporting, safety laboratory analyses, vital signs, electrocardiogram (ECG), Clinician Administered Dissociative States Scale (CADSS), Psychomotor Vigilance Test (PVT), Digit Symbol Substitution Test (DSST)), measures of the intensity of the psychedelic effects (e.g., Peak Psychedelic Experience Questionnaire (PPEQ), Altered States of Consciousness (ASC) Questionnaire, Mystical Experience Questionnaire (MEQ30), subjective description of the psychedelic experience), measures of depression severity (Montgomery-Åsberg Depression Rating Scale (MADRS), Patient's Global Impression of Severity scale (PGI-S), Patient's Global Impression of Improvement scale (PGI-I)), and additional psychological measures (e.g., Columbia-Suicide Severity Rating Scale (C-SSRS), Brief Psychiatric Rating Scale (BPRS)) were recorded at different time points. Psychological support via a psychologist and/or psychiatrist was available to the patients throughout the study, but no specific psychotherapy was applied, and no additional psychoactive medication was provided.
Two patients with major depressive disorder diagnosed by a psychiatrist according to DSM-5 diagnostic criteria were recruited into the study (Example 2, Table 1). The patients were considered treatment-resistant because they had not shown adequate improvement to at least two adequate courses of pharmacological therapy in the current episode of depression.

[1] = Patient 1, 2 hours after 12 mg inhaled
[2] = Patient 1, 2 hours after 12 mg inhaled, baseline 1
[3] = Patient 1, 2 hours after 12 mg inhaled, baseline 5
[4] = Patient 1, 1 day after 12 mg inhaled
[5] = Patient 1, 1 day after 12 mg inhaled, baseline 1
[6] = Patient 1, 1 day after 12 mg inhaled, baseline 5
[7] = Patient 1, 7 days after 12 mg inhaled
[8] = Patient 1, 7 days after 12 mg inhaled, baseline 1
[9] = Patient 1, 7 days after 12 mg inhaled, baseline 5
[10] = Patient 2, 2 hours after 12 mg inhaled
[11] = Patient 2, 2 hours after 12 mg inhaled, baseline 5
[12] = Patient 2, 1 day after 12 mg inhaled
[13] = Patient 2, 1 day after 12 mg inhaled, baseline 5
[14] = Patient 2, 7 days after 12 mg inhaled
[15] = Patient 2, 7 days after 12 mg inhaled, baseline 5
[16] = both patients, all assessment time points after 12 mg inhaled
[17] = single dose of 12 mg via inhalation

## COc1ccc2[nH]cc(CCN(C)C)c2c1 [5-MeO-DMT, 5-methoxy-N,N-dimethyltryptamine]
[1]
  % MADRS change vs. baseline: −68%
  PGI-I: 1
[2]
  MADRS suicidal thoughts item: 0
  BPRS Unusual thought content: 1
Patient 1, 2 hours after 12 mg inhaled, baseline 3
  BPRS Somatic concern: 2
Patient 1, 2 hours after 12 mg inhaled, baseline 4
  BPRS Tension: 3
[3]
  PGI-S: 1
  BPRS Guilt feelings: 1
Patient 1, 2 hours after 12 mg inhaled, baseline 6
  BPRS Depressive Mood: 2
Patient 1, 2 hours after 12 mg inhaled, baseline 7
  BPRS Anxiety: 2
Patient 1, 2 hours after 12 mg inhaled, baseline 31
  MADRS: 10
Patient 1, 2 hours after 12 mg inhaled, baseline 42
  BPRS (total): 27
Patient 1, 2 hours after 12 mg inhaled, baseline Yes
  C-SSRS Suicidal Ideation: No
[4]
  % MADRS change vs. baseline: −74%
  PGI-I: 1
[5]
  MADRS suicidal thoughts item: 0
  BPRS Unusual thought content: 1
Patient 1, 1 day after 12 mg inhaled, baseline 3
  BPRS Somatic concern: 1
Patient 1, 1 day after 12 mg inhaled, baseline 4
  BPRS Tension: 1
[6]
  PGI-S: 1
  BPRS Guilt feelings: 1
Patient 1, 1 day after 12 mg inhaled, baseline 6
  BPRS Depressive Mood: 1
Patient 1, 1 day after 12 mg inhaled, baseline 7
  BPRS Anxiety: 1
Patient 1, 1 day after 12 mg inhaled, baseline 31
  MADRS: 8
Patient 1, 1 day after 12 mg inhaled, baseline 42
  BPRS (total): 18
Patient 1, 1 day after 12 mg inhaled, baseline Yes
  C-SSRS Suicidal Ideation: No
[7]
  % MADRS change vs. baseline: −90%
  PGI-I: 1
[8]
  MADRS suicidal thoughts item: 0
  BPRS Unusual thought content: 1
Patient 1, 7 days after 12 mg inhaled, baseline 3
  BPRS Somatic concern: 1
Patient 1, 7 days after 12 mg inhaled, baseline 4
  BPRS Tension: 1
[9]
  PGI-S: 1
  BPRS Guilt feelings: 1
Patient 1, 7 days after 12 mg inhaled, baseline 6
  BPRS Depressive Mood: 1
Patient 1, 7 days after 12 mg inhaled, baseline 7
  BPRS Anxiety: 1
Patient 1, 7 days after 12 mg inhaled, baseline 31
  MADRS: 3
Patient 1, 7 days after 12 mg inhaled, baseline 42
  BPRS (total): 18
Patient 1, 7 days after 12 mg inhaled, baseline Yes
  C-SSRS Suicidal Ideation: No
[10]
  % MADRS change vs. baseline: −73%
  PGI-I: 2
Patient 2, 2 hours after 12 mg inhaled, baseline 1
  MADRS suicidal thoughts item: 0
Patient 2, 2 hours after 12 mg inhaled, baseline 3
  BPRS Tension: 1
Patient 2, 2 hours after 12 mg inhaled, baseline 4
  BPRS Somatic concern: 1
[11]
  PGI-S: 1
  BPRS Anxiety: 2
  BPRS Depressive Mood: 3
  BPRS Guilt feelings: 1
Patient 2, 2 hours after 12 mg inhaled, baseline 6
  BPRS Unusual thought content: 1
Patient 2, 2 hours after 12 mg inhaled, baseline 33
  MADRS: 9
Patient 2, 2 hours after 12 mg inhaled, baseline 45
  BPRS (total): 26
Patient 2, 2 hours after 12 mg inhaled, baseline No
  C-SSRS Suicidal Ideation: No
[12]
  % MADRS change vs. baseline: −85%
  PGI-I: 2
Patient 2, 1 day after 12 mg inhaled, baseline 1
  MADRS suicidal thoughts item: 1
Patient 2, 1 day after 12 mg inhaled, baseline 3
  BPRS Tension: 1
Patient 2, 1 day after 12 mg inhaled, baseline 4
  BPRS Somatic concern: 1
[13]
  PGI-S: 1
  BPRS Anxiety: 1
  BPRS Depressive Mood: 1
  BPRS Guilt feelings: 1
Patient 2, 1 day after 12 mg inhaled, baseline 6
  BPRS Unusual thought content: 1
Patient 2, 1 day after 12 mg inhaled, baseline 33
  MADRS: 5
Patient 2, 1 day after 12 mg inhaled, baseline 45
  BPRS (total): 19
Patient 2, 1 day after 12 mg inhaled, baseline No
  C-SSRS Suicidal Ideation: No
[14]
  % MADRS change vs. baseline: −85%
  PGI-I: 2
Patient 2, 7 days after 12 mg inhaled, baseline 1
  MADRS suicidal thoughts item: 0
Patient 2, 7 days after 12 mg inhaled, baseline 3
  BPRS Tension: 1
Patient 2, 7 days after 12 mg inhaled, baseline 4
  BPRS Somatic concern: 1
[15]
  PGI-S: 1
  BPRS Anxiety: 1
  BPRS Depressive Mood: 1
  BPRS Guilt feelings: 1
Patient 2, 7 days after 12 mg inhaled, baseline 6
  BPRS Unusual thought content: 1
Patient 2, 7 days after 12 mg inhaled, baseline 33
  MADRS: 5
Patient 2, 7 days after 12 mg inhaled, baseline 45
  BPRS (total): 18
Patient 2, 7 days after 12 mg inhaled, baseline No
  C-SSRS Suicidal Ideation: No
[16]
  standard criteria for MADRS remission (MADRS total score equal or less than 10): fulfilled
  standard criteria for MADRS response (at least 50% improvement from baseline): fulfilled
[17]
  time to clinical remission after a single 5-MeO-DMT administration: ≤ 2 h
  time to clinical response after 5-MeO-DMT administration: ≤ 2 h
